How the values were obtained:
microtubules [1] = assay: Preliminary time-course and 12 hour dose-response evaluations of microtubule polymer mass; assay type: cell-based
Description: (§1) Cell culture/drug treatments: Cells were plated on 96-well plates in the appropriate cell culture media plus 10% FBS. […] Different plating densities and treatment times were explored to maximize the observable effects of the drugs.
(§2) Immunofluorescence: This included three steps: (1) Extraction of soluble (monomeric) tubulin by permeabilizing the cells with 0.5% Triton X-100 in a microtubule stabilizing buffer, in order to remove unpolymerized tubulin. (2) Fixation of intracellular protein with 4% formaldehyde. (3) Microtubule, DNA, and (optional) total cellular protein fluorescence labeling. Microtubule staining was carried out by a standard immunofluorescence procedures using a primary mouse monoclonal antibody (anti-tubulin IgG), and affinity purified polyclonal secondary antibody (ALEXA FLUOR® 488-conjugated anti-mouse IgG (Molecular Probes, Inc. Eugene, OR)). After the cells were stained, DNA was labeled with 10 microgram/ml Hoechst 33342.
(§3) For cells triple-stained with tetramethylrhodamine iodoacetate (TMRIA) (Molecular Probes), Hoechst 33342, and ALEXA FLUOR® 488 (tubulin), or cells double stained with Hoechst 33342 and ALEXA FLUOR® 488, an XF57 filter block was used.
Image Analysis: Quantitative determination of microtubule polymer levels was performed using the methods described above. For analysis, a binary nuclear mask was made by thresholding the Hoechst image. The nuclear image was dilated to produce a perinuclear ring mask, where cytoplasmic tubulin polymer was measured. The ring mask allowed measurement of average intensity levels associated with the microtubule image. […] Other methods of image analysis that were used are described below.
Quantitation of microtubule-associated intensity was carried out by summing the pixel intensities in the microtubule (MT) channel in the area covered by the perinuclear ring mask. This integrated pixel intensity was then divided by the actual area of the perinuclear ring mask to arrive at the mean or “average” pixel intensity in the region covered by the perinuclear ring. From these measurements a MT polymerization index was calculated by normalizing the amount of MT fluorescence in a treated, “experimental” cell population, versus the amount of MT-associated fluorescence in an untreated, control cell population. This polymerization index represents a fraction or percentage of MT polymerization or depolymerization, relative to the untreated controls. Other methods of quantitation that were used are described below.
In addition, preliminary time-course and 12 hour dose-response evaluations using paclitaxel, nocodazole, and vinblastine were performed.

microtubules [2] = assay: Microtubule organization using a single perinuclear ring mask and field based threshold measurements (spot count, spot area); assay type: cell-based; details: min-max plates
Description: as §1, §2, §3

3T3 cells [3] = assay: Histogram distribution of microtubule-associated pixel intensities (OD variance); assay type: cell-based; details: individual 3T3 cells
Source text: Finally, histogram distribution of microtubule-associated pixel intensities in individual 3T3 cells was used to distinguish control cells from cells treated with nocodazole, paclitaxel, and vinblastine.

microtubules [4] = assay: Microtubule organization using concentric perinuclear ring masks; assay type: cell-based; details: for effect on microtubule organization / pattern of microtubule-associated fluorescence: similarity to other treatments: five sequential dilations of perinuclear ring mask, duplicate wells
Description: Domains were defined by five sequential dilations of a perinuclear ring mask, and measurements were made of the mean microtubule-associated intensity, the standard deviation of the microtubule-associated intensity, the mean cytoplasm to nucleus fluorescence intensity ratio, and cell-normalized microtubule fluorescence intensity. For each drug treatment condition, experiments were performed in duplicate.
Finally, the slope of the best linear fit of the microtubule associated fluorescence was calculated as a function of the angular dilation. This way, it was possible to compare the rate of change of these parameters as a function of domain position.

Fibroblasts = assay: Cell-based analysis of microtubule-targeting drugs, anti-tubulin immunocytochemistry, fibroblasts
Description: (§4) The mechanism of action of microtubule-targeting drugs was assessed in a cell component of interest field, represented as an image of tubulin-stained cells. Fibroblasts, epithelial cells,) and monocytes were left untreated ) or were treated with a variety of microtubule-targeting drugs. Cells were fixed and then stained with anti-tubulin immunocytochemistry, in order to determine how the different drugs affect morphological organization of microtubules.

epithelial cells = assay: Cell-based analysis of microtubule-targeting drugs, anti-tubulin immunocytochemistry, epithelial cells
Description: as §4

monocytes = assay: Cell-based analysis of microtubule-targeting drugs, anti-tubulin immunocytochemistry, monocytes
Description: as §4

tubulin [5] = assay: Multi-domain analysis of tubulin organization (angular, transverse, annular domains); assay type: cell-based; details: single cell
Description: Referring to FIG. 8, experiments were conducted to analyze tubulin organization in untreated (8A-D) and drug-treated (8E-H) fields of cells using angular (8B,F), transverse (8C, G) or annular domains (8D,H). […] For the purpose of analysis, cell boundaries were defined (8B-D, 8F-H) based on the reference component origin (which here is the nuclear perimeter). The component of interest field was thresholded to show the brightest pixels, and a single cell is shown for illustration purposes.
The spatial organization of intensity distribution within individual cells was then analyzed in an object of interest image, using annular domains (as in FIGS. […]). The data are shown in FIG. 9 as graphs of tubulin distribution in a single control (9A-C) and a vinblastine-treated cell (9D-F). Annular domains were created by sequential dilations of the nuclear perimeter. The position of the domain furthest away from the nucleus was given a value of one, and domain position increases in number with nuclear proximity. For each plot, measurements of tubulin distribution were normalized, by dividing the measurement obtained in a particular domain by the measurement obtained in the domain that is immediately adjacent to the nucleus. Intensity distribution within each domain was analyzed using a mathematical function to calculate the following: (1) the average pixel intensity (a measure proportional to tubulin mass) (9A, D); (2) texture difference moment (a measure proportional to tubulin periodicity) (9B, E); and (3) OD variance (a measure proportional to tubulin clustering) (9C,F). To determine the trends within each cell, data points were fitted with a linear function. […] For comparing cell populations under different treatment conditions, a number of cells in each condition can be analyzed as a sample, and the average slope within each sample used for statistical analysis.

tubulin [6] = details: single annular domain divided into 24 angular domains
microtubules [7] = assay: Peaks and valleys of pixel intensity around the perinuclear ring mask (modal classification)
3T3 cells [8] = assay: Quantitative determination of microtubule polymer content (perinuclear ring mask, anti-tubulin immunofluorescence); assay type: cell-based; details: two-hour treatment
Description: as §1
Immunofluorescence: This included three steps: (1) Extraction of soluble (monomeric) tubulin by permeabilizing the cells with 0.5% Triton X-100 in a microtubule stabilizing buffer, in order to remove unpolymerized tubulin. (2) Fixation of intracellular protein with 4% formaldehyde. (3) Microtubule, DNA, and (optional) total cellular protein fluorescence labeling. […]
Image Analysis: Quantitative determination of microtubule polymer levels was performed using the methods described above. […] The nuclear image was dilated to produce a perinuclear ring mask, where cytoplasmic tubulin polymer was measured. […]
Quantitation of microtubule-associated intensity was carried out by summing the pixel intensities in the microtubule (MT) channel in the area covered by the perinuclear ring mask. […] From these measurements a MT polymerization index was calculated by normalizing the amount of MT fluorescence in a treated, “experimental” cell population, versus the amount of MT-associated fluorescence in an untreated, control cell population. […] Other methods of quantitation that were used are described below. […]

tubulin [9] = assay: Population analysis of spatial organization of tubulin with five annular domains; details: five perinuclear annular domains; n>20 cells; duplicate
[10] = micromolar doses, 12 hour incubation
[11] = nanomolar concentrations, 12 hour incubation

| SMILES | effect on microtubules and cell division (microtubules [1]; [11]) | well average spot area (microtubules [2]) | well normalized spot counts (microtubules [2]) | whether OD variance of the pixel intensity distribution distinguishes treated vs. control cell populations (3T3 cells [3]) | effect on microtubule organization (microtubules [4]) | morphological organization of microtubules (Fibroblasts) | morphological organization of microtubules (epithelial cells) | morphological organization of microtubules (monocytes) | above threshold peaks in intensity distribution per cell, on average (tubulin [6]) | type of spatial distribution of fluorescent pixel intensities at the nuclear periphery (mono-modal, non-modal, multi-modal) (microtubules [7]) | slope of best linear fit of microtubule associated fluorescence vs domain position: similarity to other treatments (microtubules [4]) | pattern of microtubule-associated fluorescence: similarity to other treatments (microtubules [4]) | standard deviation of mean tubulin fluorescence: similarity of tubulin organization to other treatments (tubulin [9]) | also measured |
| --- | --- | --- | --- | --- | --- | --- | --- | --- | --- | --- | --- | --- | --- | --- |
| CC[C@]1(O)C[C@@H]2CN(CCc3c([nH]c4ccccc34)[C@@](C(=O)OC)(c3cc4c(cc3OC)N(C)[C@H]3[C@@](O)(C(=O)OC)[C@H](OC(C)=O)[C@]5(CC)C=CCN6CC[C@]43[C@@H]65)C2)C1 [vinblastine] | depolymerized microtubules and inhibited microtubule polymerization | significant decrease | partly increasing | could not distinguish | formation of microtubule bundles or aggregates in the cytoplasm | depolymerized the microtubules and led to the formation of tubulin paracrystals | disrupted the microtubules and led to the formation of tubulin paracrystals | intermediate effect between nocodazole and paclitaxel | 3 spots | Multimodal |  |  |  | effect on tubulin organization (microtubules [1]; [10]): induced the formation of tubulin paracrystals; microtubule polymer mass (microtubules [1]; [10]): apparent increase; distribution of brightest thresholded pixels over angular, transverse or annular domains (tubulin [5]; FIG. 8): broader distribution; OD variance (tubulin clustering) as a function of domain position (tubulin [5]; FIG. 9): marked decrease; texture difference moment (tubulin periodicity) as a function of distance from the nucleus (tubulin [5]; FIG. 9): centrifugal increase; trend of average pixel intensity (tubulin mass) as a function of annular domain position (tubulin [5]; linear fit, FIG. 9): positive slope |
| CC(=O)O[C@H]1C(=O)[C@@]2(C)[C@H]([C@H](OC(=O)c3ccccc3)[C@]3(O)C[C@H](OC(=O)[C@H](O)[C@@H](NC(=O)c4ccccc4)c4ccccc4)C(C)=C1C3(C)C)[C@]1(OC(C)=O)CO[C@@H]1C[C@@H]2O [paclitaxel, Paclitaxel] |  | increased | partly increased | could distinguish | formation of microtubule bundles or aggregates in the cytoplasm | formation of microtubule bundles, and destroyed the focal organization of microtubules | induced formation of microtubule bundles in association with the cell edge | decreased microtubule staining in the nuclear region | 4 spots | Multimodal | most similar to the slope of cells treated with vinblastine | resembled vinblastine treated cells | more similar to vinblastine-treated cells | cell-associated microtubule intensity (3T3 cells [8]; 1 micromolar): significant increase; quality of dose-response data (microtubules [1]; 12 hour dose-response, preliminary): excellent dose response data |
| COC(=O)Nc1nc2ccc(C(=O)c3cccs3)cc2[nH]1 [nocodazole] | inhibit cell division without necessarily inducing the net depolymerization of microtubules |  |  | could distinguish | microtubule disruption | depolymerized the microtubules, and led to a diffuse staining of tubulin throughout the cytoplasm | induced microtubule depolymerization and led to diffuse staining of tubulin throughout the cell cytoplasm | led to microtubule depolymerization and led to diffuse tubulin staining | 2 spots | Non-modal | most similar to the slope of cells treated with colchicine | resembled colchicine treated cells | more similar to colchicine-treated cells | cell-associated microtubule intensity (3T3 cells [8]; 5 micromolar): significant decrease; microtubule polymer mass (microtubules [1]; [11]): increase |

From US8050868B2, “Methods for determining the organization of a cellular component of interest” (Cellomics, Inc., priority 2001, dated 2011)
